In US9359281B2, “Enantiomers of 2-hydroxy derivatives of fatty acids” (UNIVERSITAT DE LES ILLES BALEARS, priority 2011, dated 2016):

System: A549 cells
Experiment: Cell growth inhibition, A549
Assay type: cell-based, human
Text: At this respect, concentrations which inhibit growth of tumour cells (IC50) are lower for the enantiomer S ([−]) in all studied tumour lines (Table 5). […] In all of the cases, the molecules employed were in the form of sodium salt.

[1] = Homo sapiens, A549, A549, sodium salt form

SMILES	IC50 [1] [µM]	IC50 (A549, sodium salt form) [µM]
CC/C=C\C/C=C\C/C=C\CCCCCCC(O)C(=O)O (racemic) [Racemic 2OH18:3a, 2-hydroxy-α-linoleic acid]		219 ± 15.4
CCCCC/C=C\C/C=C\C/C=C\CCCC(O)C(=O)O (racemic) [Racemic 2OH18:3g, 2-hydroxy-γ-linoleic acid]		206 ± 21.7
CC/C=C\C/C=C\C/C=C\CCCCCCC(O)C(=O)O (stereo not drawn) [[+]2OH18:3a] [2-hydroxy-α-linoleic acid]		351 ± 22.7
CCCCC/C=C\C/C=C\C/C=C\CCCC(O)C(=O)O (stereo not drawn) [[+]2OH18:3g] [2-hydroxy-γ-linoleic acid]		342 ± 31.5
CC/C=C\C/C=C\C/C=C\CCCCCCC(O)C(=O)O (stereo not drawn) [[−]2OH18:3a] [2-hydroxy-α-linoleic acid]		146 ± 10.9

Continued, values first:

IC50 [1] [µM]	IC50 (A549, sodium salt form) [µM]	SMILES
193 ± 9.3		CCCCCC/C=C\CCCCCCC(O)C(=O)O (racemic) [Racemic 2OH16:1, 2-hydroxypalmitoleic acid]
105 ± 4.1		CCCCC/C=C\C/C=C\CCCCCCC(O)C(=O)O (racemic) [Racemic 2OH18:2, 2-hydroxylinoleic acid]
	299 ± 34.2	CCCCCC/C=C\CCCCCCC(O)C(=O)O (stereo not drawn) [[+]2OH16:1] [2-hydroxypalmitoleic acid]
	186 ± 21.9	CCCCC/C=C\C/C=C\CCCCCCC(O)C(=O)O (stereo not drawn) [[+]2OH18:2] [2-hydroxylinoleic acid]
	110 ± 14	CCCCCC/C=C\CCCCCCC(O)C(=O)O (stereo not drawn) [[−]2OH16:1] [2-hydroxypalmitoleic acid]
	69.9 ± 11.2	CCCCC/C=C\C/C=C\CCCCCCC(O)C(=O)O (stereo not drawn) [[−]2OH18:2] [2-hydroxylinoleic acid]
	155 ± 7.5	CCCCC/C=C\C/C=C\C/C=C\CCCC(O)C(=O)O (stereo not drawn) [[−]2OH18:3g] [2-hydroxy-γ-linoleic acid]
